Experimental findings from patent US12083227B2, “Solid pharmaceutical formulations for treating endometriosis, uterine fibroids, polycystic ovary syndrome or adenomyosis” (priority 2017, dated 2024) are described below.

A short description of data set [1]: pharmacokinetic properties of elagolix in healthy subjects. It counts as in vivo, human. The conditions noted are these: minor pathways include CYP2D6, CYP2C8 and UGTs.
Data set [2] is described as follows: drug interaction studies: elagolix in the presence of co-administered drug. It counts as in vivo, human. The conditions noted are these: for AUC Ratio (co-administration vs. elagolix alone) / Cmax Ratio (co-administration vs. elagolix alone): elagolix 150 mg single dose.
Description: Drug interaction studies were performed with elagolix and other drugs that are likely to be co-administered and with drugs commonly used as probes for pharmacokinetic interactions.
Data set [3] concerns the target T1, organic anion transporting polypeptide (OATP)1B1 (Homo sapiens, UniProt Q9Y6L6).
T1 sequence (Q9Y6L6 1-691): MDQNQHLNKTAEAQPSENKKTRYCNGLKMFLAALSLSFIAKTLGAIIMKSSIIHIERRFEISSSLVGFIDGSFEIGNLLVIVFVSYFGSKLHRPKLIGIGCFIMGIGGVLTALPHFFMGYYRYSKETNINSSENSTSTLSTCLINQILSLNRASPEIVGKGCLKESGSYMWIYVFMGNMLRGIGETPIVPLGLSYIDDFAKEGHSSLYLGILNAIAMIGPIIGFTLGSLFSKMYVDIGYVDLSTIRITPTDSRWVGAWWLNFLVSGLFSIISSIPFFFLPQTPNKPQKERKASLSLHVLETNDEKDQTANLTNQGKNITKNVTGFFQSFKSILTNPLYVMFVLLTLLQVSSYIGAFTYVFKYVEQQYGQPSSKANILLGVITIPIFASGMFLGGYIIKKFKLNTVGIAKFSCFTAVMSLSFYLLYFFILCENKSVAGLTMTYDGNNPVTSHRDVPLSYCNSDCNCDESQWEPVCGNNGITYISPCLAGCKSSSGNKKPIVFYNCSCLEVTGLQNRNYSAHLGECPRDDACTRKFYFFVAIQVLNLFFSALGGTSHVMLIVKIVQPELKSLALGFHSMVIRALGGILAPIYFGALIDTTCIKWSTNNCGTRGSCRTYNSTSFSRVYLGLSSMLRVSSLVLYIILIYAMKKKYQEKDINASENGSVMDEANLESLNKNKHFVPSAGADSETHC
Description: substrate status: OATP1B1. The source says:
Elagolix is a substrate of CYP3A, P-gp, and organic anion transporting polypeptide (OATP)1B1. Clinically meaningful interactions are not expected when elagolix is co-administered with drugs that inhibit CYP3A or P-gp.

In another data set the test system is tumors in mouse. Description: 2-year carcinogenicity study in mice. It counts as in vivo. The conditions noted are these: any dose.
In data set [4] the test system is fertility and reproductive organs of rats. Description: fertility study and repeat-dose study in rats. The class given is in vivo, rat. The source says: Based on pharmacologic actions of elagolix in humans a reversible effect on fertility may be expected in women.
[5] abbreviates: Ketoconazole 400 mg once daily, N 11.
[6] abbreviates: Rifampin 600 mg single dose, N 12.

For the molecule `COc1cccc(-c2c(C)n(Cc3c(F)cccc3C(F)(F)F)c(=O)n(C[C@H](NCCCC(=O)O)c3ccccc3)c2=O)c1F` [elagolix, 4-((R)-2-[5-(2-fluoro-3-methoxy-phenyl)-3-(2-fluoro-6-trifluoromethyl-benzyl)-4-methyl-2,6-dioxo-3,6-dihydro-2H-pyrimidin-1-yl]-1-phenyl-ethylamino)-butyric acid], in data set [1], the Metabolism entry is listed as “CYP3A (major) Minor”. Further, the “AUC Ratio (co-administration vs. elagolix alone)” value in data set [2] (setting [5]) is recorded as 2.20; in data set [2] (Rifampin 600 mg once daily), 1.65; in data set [2] (setting [6]), 5.58. The “Cmax Ratio (co-administration vs. elagolix alone)” value in data set [2] (setting [5]) is 1.77; in data set [2] (Rifampin 600 mg once daily) it was 2.00; in data set [2] (setting [6]), 4.37. In addition, the “direction of the change in AUC of elagolix” value in data set [2] (co-administered with rifampin) is “↑ elagolix”. In data set [3], the “substrate of OATP1B1” value is reported as “substrate”. Further, in the data set with tumors in mouse, the “carcinogenicity: tumors” value is “no increase in tumors”. The effect on fertility entry in data set [4] (fertility study, 50, 150, 300 mg/kg/day) is reported as “no effect”. In addition, in data set [4] (repeat-dose study, 600, 800 mg/kg/day), the ovary findings result is “involution and a decrease in corpora lutea in ovaries”.
